For one data set, the system named is mice tibial fracture. Nature of the data set: Mice tibial fracture model (guarding, weight bearing, micro-CT, three point bending). Type of data set: in vivo. Conditions: three point bending test, two weeks following fracture. The procedure:
The effects of NMP alone, NMP combined with mepivacaine and mepivacaine alone, on post-fracture mobilization, postoperative pain and bone healing were assessed in vivo using a standardized mice tibial fracture model (St-Arnaud, The Journal of steroid biochemistry and molecular biology 121, 254-256 (2010)). Thirty-two mice were randomly assigned into four groups (n=8, each); saline, mepivacaine, NMP and NMP+mepivacaine. Thirty minutes prior to surgical intervention, each mouse was injected with Carprofen (20 mg/kg; SC).
The animal was then anesthetized with isoflurane (3-5% at the induction time and 2-2.5% during the maintenance period). […] A longitudinal skin incision was made in order to expose the right patellar tendon. […]
Post-operative Animals' pain perception and locomotion were evaluated, at different time point; […], 3 days, one week and two weeks post fracture, by assessing mice guarding (Yasuda et al., Journal of pain research 6, 161 (2013)) and weight bearing per each leg, respectively. […] Guarding behavior was assessed as following; each mouse was placed individually in a clear plastic box on an elevated stainless steel mesh. […]
Weight bearing test was performed as following; an incapacitance meter (IITC.inc, CA, US) was used for determination of hind paw weight distribution. […] The weight exerted by each hind limb was measured and averaged over a period of 5 seconds. […]

A short description of data set [1]: In vitro drug release of mepivacaine (dialysis tube, PBS, 37° C., UV-Vis). Format: physicochemical. The protocol:
For the in vitro drug release, mepivacaine hydrochloride was dissolved in 1 mL of gel previously prepared to reach different mepivacaine concentration. The pH of the resulting thixotropic colloidal suspension before the addition of mepivacaine was 7.95, while after the addition of the drug changed to 7.1. The gel+mepivacaine was placed in a Pur-L-Lyzer™ dialysis tube with a molecular weight cut-off of 12000 Da, while the control group is represented by the mepivacaine dissolved in PBS (2% w/v) and placed in a dialysis tubes with the same molecular weight cut-off. The tubes were incubated in 30 mL of phosphate buffer saline solution (PBS) at 37° C., and the solution was changed at different time points comprised between 0 and 168 hours. In order to calculate the amount of drug released, the extracted solutions were analyzed with UV-Vis spectroscopy following the absorption of mepivacaine at 263 nm. All experiments were done in triplicates.

The structures appear in SMILES notation.

`Cc1cccc(C)c1NC(=O)C1CCCCN1C` (stereo not drawn) [mepivacaine]: the “force to fracture, fractured versus non-fractured tibia” value in the data set on mice tibial fracture was “significantly different”. In addition, the “total release of drug” value in data set [1] (after 8 hours, PBS, 37° C.) turned out to be 90±5%. Further, the “stability of mepivacaine in contact with the gel (UV-Vis spectra)” value in data set [1] (after 24 hours from the beginning of the release experiment) is “molecular integrity of the drug”.

Source of the values: patent US11629055B2, “Magnesium phosphate hydrogels” (INViCARE INC., priority 2015, dated 2023).
